Usually IC50 stands for the point on the concentration scale where inhibition reaches its midpoint.

Results on 14 molecules are retold here after US12059425B2, “Heterocyclic compounds and uses thereof” (Kumquat Biosciences Inc., priority 2022, dated 2024).

Format in all cases: biochemical
The target in one test is T1, K-Ras G12S (Homo sapiens, UniProt P01116, G12S).
T1 construct: made in house; host or cells: E. coli, e.g. BL21 (DE3)
The experiment in a line: PPI-HTRF assay, K-Ras G12S / SOS1 interaction. The following applies: read-out: PPI-HTRF-5 nM (K-Ras G12S IC50). From the text: (§1) This assay can be also used to assess a selective inhibition or reduction of signaling output of a mutant Ras protein relative to a wildtype, or relative to a different mutant Ras protein. For example, the equilibrium interaction of wildtype Kras or K-Ras mutant (e.g., wildtype or a mutant thereof) with SOS1 (e.g., hSOS1) can be assessed as a proxy or an indication for a subject compound's ability to bind and inhibit Ras protein. HTRF assay detects from (i) a fluorescence resonance energy transfer (FRET) donor (e.g., antiGST-Europium) that is bound to GST-tagged K-Ras mutant to (ii) a FRET acceptor (e.g., anti-6His-XL665) bound to a His-tagged hSOS1.
(§2) The assay buffer can contain ˜5 mM HEPES pH 7.4, ˜150 mM NaCl, ˜1 mM DTT, 0.05% BSA and 0.0025% (v/v) Igepal. A Ras working solution is prepared in an assay buffer containing typically a suitable amount of the protein construct (e.g., GST-tagged K-Ras mutant) and the FRET donor (e.g., antiGST-Eu(K) from Cisbio, France). A SOS1 working solution is prepared in an assay buffer containing suitable amount of the protein construct (e.g., His-hSOS1) and the FRET acceptor (e.g., anti-6His-XL665 from Cisbio, France). A suitable amount of the protein construct will depend on the range of activity or range of IC50 values being detected or under investigation. For detecting IC50 within a range of 500 nM, the protein constructs of the same range of molarity can be utilized.
(§3) A fixed volume of DMSO with or without test compound is transferred into a 384-well plate. Ras working solution is added to all wells of the test plate. SOS1 working solution is added to all wells except for those that are subsequently filled the inhibitor control solution. Upon incubation for about 10 minutes or longer, the fluorescence is measured with a M1000Pro plate reader (Tecan) using HTRF detection (excitation 337 nm, emission 1: 620 nm, emission 2: 665 nm). Compounds are tested in duplicate at different concentrations (for example, 10 μM, 2.5 μM, 0.63 μM, 0.16 μM, 0.04 μM, 0.01 μM test compound). The ratiometric data (i.e., emission 2 divided by emission 1) is used to calculate IC50 values against Ras using GraphPad Prism (GraphPad software). Following this general procedure, samples are tested with or without a subject compound disclosed herein including compounds exemplified in Table 1 to assess their abilities to inhibit a mutant K-Ras relative to another K-Ras (e.g., different mutant or wildtype). Signaling output measured in terms of IC50 values can be obtained, a ratio of IC50 against one mutant relative to another mutant can be calculated. For instance, a selective reduction of K-Ras G12D signaling output can be evidenced by a ratio greater than one. In particular, a selective reduction of K-Ras G12D signaling relative to K-Ras WT signaling is evidenced if the ratio of IC50 (against K-Ras WT) to IC50 (against K-Ras G12D) is greater than 1.
On the technique in general: TR-FRET usually uses a lanthanide donor and a delayed reading to cut background.

A further test has as its target T2, wildtype K-Ras (Homo sapiens, UniProt P01116).
T2 construct: made in house; host or cells: E. coli, e.g. BL21 (DE3)
Put plainly: PPI-HTRF assay, wildtype K-Ras / SOS1 interaction. The following applies: HTRF, K-Ras wt; read-out: PPI-HTRF-5 nM (K-Ras wt IC50).
Source text: as §1, §2, §3

In another test the target is T3, K-Ras G12D (Homo sapiens, UniProt P01116, G12D).
T3 construct: made in house; host or cells: E. coli, e.g. BL21 (DE3)
The experiment in a line: PPI-HTRF assay, K-Ras G12D / SOS1 interaction. The following applies: HTRF, K-Ras G12D; read-out: PPI-HTRF-5 nM (K-Ras G12D IC50).
Source text: as §1, §2, §3

A further test deals with T4, K-Ras G12V (Homo sapiens, UniProt P01116, G12V).
T4 construct: made in house; host or cells: E. coli, e.g. BL21 (DE3)
The experiment in a line: PPI-HTRF assay, K-Ras G12V / SOS1 interaction. The following applies: HTRF, K-Ras G12V; read-out: PPI-HTRF-5 nM (K-Ras G12V IC50).
Source text: as §1, §2, §3

Bounds are passed on as bounds.

T4 sequence (P01116 1-188 isoform P01116-2 G12V): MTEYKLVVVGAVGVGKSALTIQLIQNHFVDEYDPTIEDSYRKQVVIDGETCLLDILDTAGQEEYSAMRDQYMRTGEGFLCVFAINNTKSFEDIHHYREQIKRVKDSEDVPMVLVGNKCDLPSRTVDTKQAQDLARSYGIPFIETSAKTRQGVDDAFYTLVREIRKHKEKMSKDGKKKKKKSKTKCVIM
T2 sequence (P01116 1-188 isoform P01116-2): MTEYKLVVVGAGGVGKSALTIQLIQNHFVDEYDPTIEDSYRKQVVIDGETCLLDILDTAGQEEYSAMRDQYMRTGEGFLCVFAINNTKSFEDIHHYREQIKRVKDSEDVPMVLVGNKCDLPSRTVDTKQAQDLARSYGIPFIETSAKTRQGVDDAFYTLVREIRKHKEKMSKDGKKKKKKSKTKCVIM
T3 sequence (P01116 1-188 isoform P01116-2 G12D): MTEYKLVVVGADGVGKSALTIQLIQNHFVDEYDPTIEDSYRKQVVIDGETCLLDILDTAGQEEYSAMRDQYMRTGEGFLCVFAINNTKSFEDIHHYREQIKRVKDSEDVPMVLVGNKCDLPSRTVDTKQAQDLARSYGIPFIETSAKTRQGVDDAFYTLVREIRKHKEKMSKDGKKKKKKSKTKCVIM
T1 sequence (P01116 1-188 isoform P01116-2 G12S): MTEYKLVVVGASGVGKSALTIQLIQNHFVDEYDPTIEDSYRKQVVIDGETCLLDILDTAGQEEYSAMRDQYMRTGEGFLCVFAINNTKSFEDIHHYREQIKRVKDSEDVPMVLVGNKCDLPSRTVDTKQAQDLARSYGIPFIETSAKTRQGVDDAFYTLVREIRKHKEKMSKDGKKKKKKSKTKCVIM

`N#Cc1c(N)sc2c(F)ccc(-c3c(Cl)c4c5c(nc(OC[C@@]67CCCN6C[C@H](F)C7)nc5c3F)N(CC(F)F)C3CN(C=O)CC3O4)c12` (stereo partly drawn) [compound 201, 2-amino-4-(6-chloro-11-(2,2-difluoroethyl)-4-fluoro-2-(((2R,7aS)-2-fluorotetrahydro-1H-pyrrolizin-7a(5H)-yl)methoxy)-9-formyl-7a,8,9,10,10a,11-hexahydropyrrolo[3′,4′:2,3][1,4]oxazepino [5,6,7-de]quinazolin-5-yl)-7-fluorobenzo[b]thiophene-3-carbonitrile]: the half-maximal inhibitory concentration (IC50) on K-Ras G12S, on wildtype K-Ras, on K-Ras G12D and at K-Ras G12V was below 5 µM throughout.

As for `CC(C)C1NCC12CC[C@H]1COc3c(Cl)c(-c4ccc(F)c5sc(N)c(C#N)c45)c(F)c4nc(OC[C@@]56CCCN5C[C@H](F)C6)nc(c34)N1C2` (single isomer, unassigned) [compound 179], the IC50 at K-Ras G12S is above 5 µM; on K-Ras G12D, below 5 µM.

As to `N#Cc1c(N)sc2c(F)ccc(-c3c(Cl)c4c5c(nc(OC[C@@]67CCCN6C[C@H](F)C7)nc5c3F)N3C[C@@H](N)C[C@H]3CO4)c12` [compound 191, 2-amino-4-((8aS,10S)-10-amino-6-chloro-4-fluoro-2-(((2R,7aS)-2-fluorotetrahydro-1H-pyrrolizin-7a(5H)-yl)methoxy)-8a,9,10,11-tetrahydro-8H-pyrrolo[2′,1′:3,4][1,4]oxazepino[5,6,7-de]quinazolin-5-yl)-7-fluorobenzo[b]thiophene-3-carbonitrile], the half-maximal inhibitory concentration (IC50) on K-Ras G12S, at wildtype K-Ras, on K-Ras G12D and on K-Ras G12V was below 5 µM each time.

For the molecule `CC(O)C1C[C@H]2CCCN2c2nc(OC[C@@]34CCCN3C[C@H](F)C4)nc3c(F)c(-c4ccc(F)c5sc(N)c(C#N)c45)c(Cl)c(c23)O1` (single isomer, unassigned) [compound 122], the half-inhibitory concentration (IC50) at K-Ras G12S, on wildtype K-Ras and on K-Ras G12V was below 5 µM each time.

With `N#Cc1c(N)sc2c(F)ccc(-c3c(Cl)c4c5c(nc(OC[C@@]67CCCN6C[C@H](F)C7)nc5c3F)N3[C@H](CO4)C[C@@H]3COC(F)F)c12` [compound 210, 2-amino-4-((8aS,10R)-6-chloro-10-((difluoromethoxy)methyl)-4-fluoro-2-(((2R,7aS)-2-fluorotetrahydro-1H-pyrrolizin-7a(5H)-yl)methoxy)-8,8a,9,10-tetrahydroazeto[2′,1′:3,4][1,4]oxazepino [5,6,7-de]quinazolin-5-yl)-7-fluorobenzo[b]thiophene-3-carbonitrile], the IC50 at K-Ras G12S, at wildtype K-Ras, on K-Ras G12D and at K-Ras G12V was above 5 µM each time.

Turning to `CN1c2nc(OC[C@@]34CCCN3C[C@H](F)C4)nc3c(F)c(-c4ccc(F)c5sc(N)c(C#N)c45)c(Cl)c(c23)OCC2COCCC21` (stereo partly drawn) [compound 198, 2-amino-4-(6-chloro-4-fluoro-2-(((2R,7aS)-2-fluorotetrahydro-1H-pyrrolizin-7a(5H)-yl)methoxy)-13-methyl-8a,9,11,12,12a,13-hexahydro-8H-pyrano[4′,3′:6,7][1,5]oxazocino[4,3,2-de]quinazolin-5-yl)-7-fluorobenzo[b]thiophene-3-carbonitrile], the IC50 at K-Ras G12S, on wildtype K-Ras, at K-Ras G12D and on K-Ras G12V was below 5 µM in each case.

For `COCCN1c2nc(OC[C@@]34CCCN3C[C@H](F)C4)nc3c(F)c(-c4ccc(F)c5sc(N)c(C#N)c45)c(Cl)c(c23)OCC2COCC21` (stereo partly drawn) [compound 163, 2-amino-4-(6-chloro-4-fluoro-2-(((2R,7aS)-2-fluorotetrahydro-1H-pyrrolizin-7a(5H)-yl)methoxy)-12-(2-methoxyethyl)-8a,9,11a,12-tetrahydro-8H,11H-furo[3′,4′:6,7][1,5]oxazocino[4,3,2-de]quinazolin-5-yl)-7-fluorobenzo[b]thiophene-3-carbonitrile], the 50% inhibitory concentration (IC50) on K-Ras G12S, at wildtype K-Ras, on K-Ras G12D and at K-Ras G12V was below 5 µM throughout.

Consider `N#Cc1c(N)sc2c(F)ccc(-c3c(Cl)c4c5c(nc(OC[C@@]67CCCN6C[C@H](F)C7)nc5c3F)N3C[C@H](N)C[C@H]3CO4)c12` [compound 195, 2-amino-4-((8aS,10R)-10-amino-6-chloro-4-fluoro-2-(((2R,7aS)-2-fluorotetrahydro-1H-pyrrolizin-7a(5H)-yl)methoxy)-8a,9,10,11-tetrahydro-8H-pyrrolo[2′,1′:3,4][1,4]oxazepino[5,6,7-de]quinazolin-5-yl)-7-fluorobenzo[b]thiophene-3-carbonitrile], for which the IC50 at K-Ras G12S, at wildtype K-Ras, on K-Ras G12D and on K-Ras G12V was below 5 µM each time.

Regarding `CN1c2nc(OC[C@@]34CCCN3C[C@H](F)C4)nc3c(F)c(-c4ccc(F)c5sc(N)c(C#N)c45)c(Cl)c(c23)OCC2CCCC21` (stereo partly drawn) [compound 165, 2-amino-4-(6-chloro-4-fluoro-2-(((2R,7aS)-2-fluorotetrahydro-1H-pyrrolizin-7a(5H)-yl)methoxy)-12-methyl-8a,9,10,11,11a,12-hexahydro-8H-cyclopenta[6,7][1,5]oxazocino[4,3,2-de]quinazolin-5-yl)-7-fluorobenzo[b]thiophene-3-carbonitrile], the IC50 on K-Ras G12D is below 5 µM.

Turning to `N#Cc1c(N)sc2c(F)ccc(-c3c(Cl)c4c5c(nc(OCC67CCCN6C[C@H](F)C7)nc5c3F)N3CCC(OC(F)F)CC3CO4)c12` (single isomer, unassigned) [compound 118], the concentration for half-maximal inhibition (IC50) on K-Ras G12S, at wildtype K-Ras, at K-Ras G12D and on K-Ras G12V was below 5 µM in each case.

For the molecule `N#Cc1c(N)sc2c(F)ccc(-c3c(Cl)c4c5c(nc(OC[C@@]67CCCN6C[C@H](F)C7)nc5c3F)N3CCC[C@@H]3CC(C(F)F)O4)c12` (single isomer, unassigned) [compound 123], the IC50 on K-Ras G12S, at wildtype K-Ras and on K-Ras G12V was below 5 µM each time.

With `CC(C)C1NCC12CC[C@H]1COc3c(Cl)c(-c4ccc(F)c5sc(N)c(C#N)c45)c(F)c4nc(OC[C@@]56CCCN5C[C@H](F)C6)nc(c34)N1C2` (single isomer, unassigned) [compound 130], the IC50 at K-Ras G12S, at wildtype K-Ras and at K-Ras G12V was below 5 µM in each case.

On to `N#Cc1c(N)sc2c(F)ccc(-c3c(Cl)c4c5c(nc(OC[C@@]67CCCN6C[C@H](F)C7)nc5c3F)N3CCC(F)(F)CC3CO4)c12` (stereo partly drawn) [compound 203, 2-amino-4-(6-chloro-4,10,10-trifluoro-2-(((2R,7aS)-2-fluorotetrahydro-1H-pyrrolizin-7a(5H)-yl)methoxy)-8,8a,9,10,11,12-hexahydropyrido[2′,1′:3,4][1,4]oxazepino [5,6,7-de]quinazolin-5-yl)-7-fluorobenzo[b]thiophene-3-carbonitrile], for which the IC50 at K-Ras G12S, at wildtype K-Ras, on K-Ras G12D and at K-Ras G12V was below 5 µM each time.

Turning to `CC(O)C1C[C@H]2CCCN2c2nc(OC[C@@]34CCCN3C[C@H](F)C4)nc3c(F)c(-c4ccc(F)c5sc(N)c(C#N)c45)c(Cl)c(c23)O1` (single isomer, unassigned) [compound 160], at K-Ras G12D, the IC50 is below 5 µM.
